Laboratory results as given in patent US9603354B2, “Protective solutions for organs” (DR. FRANZ KOEHLER CHEMIE GMBH, priority 2002, dated 2017).

What was measured:
[1] = system: iron-dependent hypothermic injury, cold-induced apoptosis; experiment: Inhibition of iron-dependent hypothermic injury / cold-induced apoptosis by iron-chelating agents; assay type: cell-based
From the text: Iron-chelating agents may serve for the inhibition of the iron-dependent hypothermic injury, or of the cold-induced apoptosis.

[2] = Neutralization curve / buffer capacity (FIG. 3); assay type: physicochemical; settings: for usable buffer capacity in the range of the physiological pH value: based on the ratio of spent base to substrate
From the text: The usable buffer capacity in the range of the physiological pH value; with N-acetylhistidine 60%, and with histidine 30% based on the ratio of spent base to substrate.

[3] = system: hepatocytes; experiment: Cell damage of hepatocytes by hydrogenperoxide (FIG. 5); assay type: cell-based; settings: 1 mM/l in N4 solution + 20 mM/l H2O2
Experimental: 1: N4+20 mM/l H2O2 • graph no. 2: N4+20 mM/l H2O2+1 mM/l 4-chloro-N-methyl-benzohydroxamic acid • graph no. 3: N4+20 mM/l H2O2+1 mM/l 2-hydroxy-3-methyl-isocarbosteryl • graph no. 4: N4+20 mM/l H2O2+1 mM/l 3,4,5-trimethoxy-N-methyl-benzohydroxamic acid • graph no. 5: N4+20 mM/l H2O2+1 mM/l 3,4-dimethoxy-N-methyl-hydroxamic acid, N4 meaning the solution according to example II given hereinafter, but without Trolox and without hydroxamic acid derivative.

[4] = system: rat liver endothelial cells; experiment: Hypothermic injury of cultivated rat liver endothelial cells, LDH release (FIG. 1); assay type: cell-based; settings: 1 mM; 72 hrs at 4° C. in UW solution, aerobic; rewarmed 3 hrs at 37° C. in cell culture medium
Experimental: Cultivated rat liver endothelial cells were incubated for 72 hrs at 4° C. in University of Wisconsin solution (UW) under aerobic conditions in the presence of, and in the absence of 1 mM of salicyl-N-methylhydroxamic acid, and subsequently rewarmed for 3 hrs in a cell culture medium (37° C.). The release of cytosolic lactate dehydrogenase (LDH) served as the parameter of the cell damage.

[5] = system: rat hepatocytes; experiment: Hypothermic injury of cultivated rat hepatocytes in UW solution, LDH release (FIG. 2); assay type: cell-based; settings: 1 mM; 24 hrs at 4° C. in UW solution, aerobic; reheated 3 hrs at 37° C. in cell culture medium
Experimental: Cultivated rat hepatocytes were incubated for 24 hrs at 4° C. in a University of Wisconsin solution (UW) under aerobic conditions in the presence of, and in the absence of 1 mM of 3,4-dimethoxy-N-methyl-benzohydroxamic acid, and subsequently reheated for 3 hrs in a cell culture medium (37° C.). The secretion of cytosolic lactate […] (LDH) served as the parameter of the cell damage.

[6] = system: rat hepatocytes; experiment: Toxicity of histidine under warm conditions in cultivated rat hepatocytes (FIG. 4); assay type: cell-based; settings: 198 mM; 5 hrs at 37° C., aerobic, Krebs-Henseleit buffer, pH 7.2
Experimental: Cultivated rat hepatocytes were incubated for 5 hrs at 37° C. under aerobic conditions in the presence of, and in the absence of 198 mM of L-histidine, or 198 mM of N-acetylhistidine. The base solution was Krebs-Henseleit buffer (KH), a physiological saline solution often used in cell cultures; the NaCl concentration of the histidine (derivative) containing solution was decreased by 99 mM and the histidine (derivative) solution was adjusted by the addition of HCl or NAOH to pH 7.2.

SMILES	effectiveness in avoiding iron-dependent hypothermic injury [1]	protection from cell damage by hydrogenperoxide [3]	also measured
O=C1CCC(=O)N1O [N-hydroxysuccinimide]	ineffectiveness	–	–
CC(=O)N[C@@H](Cc1c[nH]cn1)C(=O)O [N-acetylhistidine]	–	–	usable buffer capacity in the range of the physiological pH value [2]: 60%; buffer capacity improved by factor compared to histidine/histidine HCl ([2]; factor versus histidine/histidine HCl): 2
COc1cc(C(=O)N(C)O)cc(OC)c1OC [3,4,5-trimethoxy-N-methyl-benzohydroxamic acid]	–	protection	–
CN(O)C(=O)c1ccccc1O [salicyl-N-methylhydroxamic acid]	–	–	inhibition of hypothermic injury (release of cytosolic LDH) [4]: inhibition of hypothermic injury
Cc1cc2ccccc2c(=O)n1O [2-hydroxy-3-methyl-isocarbosteryl, 2-hydroxy-3-methyl-isocarbostyril]	–	protection	–
O=C(O)CN(CCN(CC(=O)O)CC(=O)O)CC(=O)O [EDTA]	ineffective	–	–
CN(O)C(=O)c1ccc(Cl)cc1 [4-chloro-N-methyl-benzohydroxamic acid]	–	protection	–
O=c1c2ccccc2nnn1O [3,4-dihydro-3-hydroxy-4oxo-1,2,3-benzotriazine]	ineffectiveness	–	–
COc1ccc(C(=O)N(C)O)cc1OC [3,4-dimethoxy-N-methyl-benzohydroxamic acid]	–	protection	inhibition of hypothermic injury (cytosolic LDH) [5]: inhibition of hypothermic injury
N[C@@H](Cc1c[nH]cn1)C(=O)O [histidine, L-histidine]	ineffective	–	usable buffer capacity in the range of the physiological pH value [2]: 30%; toxicity under warm conditions [6]: toxicity
